Measured values: the NIST ThermoML archive (doi:10.1021/je400803f)
Numbers after ± are expanded uncertainties.

Details: 101.33 kPa, Liquid, Vibrating tube method

Row | SMILES | mass density (293.15 K) [kg/m3] | mass density (298.15 K) [kg/m3] | mass density (303.15 K) [kg/m3] | mass density (308.15 K) [kg/m3] | mass density (313.15 K) [kg/m3] | mass density (318.15 K) [kg/m3] | mass density (323.15 K) [kg/m3]
1 | CCCC[N+]1(C)CCCC1.FC(F)(F)C(F)(F)[P-](F)(F)(F)(C(F)(F)C(F)(F)F)C(F)(F)C(F)(F)F | 1588.56 ± 0.76 | 1583.15 ± 0.76 | 1577.67 ± 0.75 | 1572.16 ± 0.75 | 1566.62 ± 0.74 | 1561.06 ± 0.74 | 1555.48 ± 0.73
2 | CNC=O [N-methylformamide] | 1003.35 ± 0.23 | 998.91 ± 0.23 | 994.49 ± 0.23 | 990.01 ± 0.23 | 985.47 ± 0.23 | 980.88 ± 0.23 | 976.24 ± 0.23
3 | CCCCN(C=O)CCCC [N,N-dibutylformamide] | 879.05 ± 0.23 | 875.12 ± 0.23 | 871.17 ± 0.23 | 867.15 ± 0.23 | 863.11 ± 0.23 | 859.01 ± 0.23 | 854.82 ± 0.23
4 | CN(C)C=O [dimethylformamide] | 948.72 ± 0.23 | 943.86 ± 0.23 | 939 ± 0.23 | 934.08 ± 0.23 | 929.13 ± 0.23 | 924.06 ± 0.23 | 918.96 ± 0.23
5 | CC(=O)N(C)C [N,N-dimethylethanamide] | 940.92 ± 0.23 | 936.3 ± 0.23 | 931.62 ± 0.23 | 926.89 ± 0.23 | 922.09 ± 0.23 | 917.23 ± 0.23 | 912.23 ± 0.23
6 | CCNC=O [N-ethylformamide] | 951.59 ± 0.07 | 947.48 ± 0.07 | 943.29 ± 0.07 | 939.04 ± 0.07 | 934.78 ± 0.07 | 930.45 ± 0.07 | 926.06 ± 0.08
